Assay [1] concerns the target T1, AHR (Homo sapiens, UniProt P35869).
T1 sequence (P35869 11-848): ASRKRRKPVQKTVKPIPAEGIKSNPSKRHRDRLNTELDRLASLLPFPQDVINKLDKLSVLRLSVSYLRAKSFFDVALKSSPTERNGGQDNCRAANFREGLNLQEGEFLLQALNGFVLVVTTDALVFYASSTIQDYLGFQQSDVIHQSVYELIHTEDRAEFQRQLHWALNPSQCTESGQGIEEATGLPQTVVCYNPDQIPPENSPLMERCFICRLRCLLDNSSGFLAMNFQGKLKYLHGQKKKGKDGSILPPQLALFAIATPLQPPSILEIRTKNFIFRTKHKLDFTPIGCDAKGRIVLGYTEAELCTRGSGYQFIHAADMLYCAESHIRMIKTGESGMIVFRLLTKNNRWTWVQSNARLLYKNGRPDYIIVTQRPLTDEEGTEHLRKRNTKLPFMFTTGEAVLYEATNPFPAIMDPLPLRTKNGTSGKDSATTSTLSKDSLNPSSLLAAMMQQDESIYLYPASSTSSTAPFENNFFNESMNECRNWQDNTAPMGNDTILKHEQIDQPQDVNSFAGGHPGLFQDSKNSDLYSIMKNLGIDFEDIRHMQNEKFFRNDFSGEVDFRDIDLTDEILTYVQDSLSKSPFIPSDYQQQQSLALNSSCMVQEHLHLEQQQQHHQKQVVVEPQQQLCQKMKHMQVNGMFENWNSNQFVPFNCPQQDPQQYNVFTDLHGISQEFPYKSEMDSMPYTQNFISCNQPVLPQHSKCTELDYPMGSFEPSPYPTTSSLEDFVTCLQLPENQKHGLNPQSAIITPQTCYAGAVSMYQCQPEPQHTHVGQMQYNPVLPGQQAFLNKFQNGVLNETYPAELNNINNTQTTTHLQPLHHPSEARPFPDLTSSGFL
Description: In vitro assay 2: agonism in human cell line (transactivation assay).

For assay [2], the target named is T1, AHR. The assay can be described thus: In vitro assay 1: antagonism in human cell line (transactivation assay, kynurenic acid prestimulated). Conditions: Assay 1: AHR-luc Hum Antagonism IC50 [M], 150 μM kynurenic acid, 20 hours, firefly luciferase.
Description: Transactivation assays were carried out in U87 glioblastoma cells (ATCC) endogenously expressing AHR. In addition the cells were stably transfected with an AHR inducible firefly luciferase reporter gene construct that carried AHR-binding sites (DRE) in its promoter and a renilla reporter gene construct with constitutively active promoter. Kynurenic acid is an endogenous AHR activating ligand and was used to prestimulate test cells prior to testing the antagonistic properties of compounds.
In Vitro Assay 1: Antagonism in Human Cell Line
Cells in medium (tryptophan free RPMI, 1% FCS, 2 mM Glutamine) supplemented with 150 μM kynurenic acid were grown for 20 hours in absence (negative control) or presence of increasing concentrations of test compounds (typical dilutions: 72 pmol/L, 0.25 nmol/L, 0.89 nmol/L; 3.1 nmol/L, 11 nmol/L, 38 nmol/L, 130 nmol/L, 470 nmol/L, 1.6 μmol/L, 5.7 μmol/L and 20 μmol/L in duplicates). As positive inhibition control cells supplemented with 150 μM kynurenic acid were incubated in presence of 5 μM Staurosporin. Normalization was done by positive and negative controls.
Firefly luciferase and Renilla activity was determined by the DualGlo Luciferase Assay System (Promega, #2920).
The mark [3] stands for this setting: read-out: Assay 2: AHR-luc Hum Agonism IC50, no kynurenic acid, 20 hours, firefly luciferase.
The mark [4] stands for this setting: Assay 2: AHR-luc Hum Agonism IC50 [M], no kynurenic acid, 20 hours, firefly luciferase.

This is an account of results in patent US11040035B2, “3-oxo-2,6-diphenyl-2,3-dihydropyridazine-4-carboxamides” (BAYER PHARMA AKTIENGESELLSCHAFT, priority 2016, dated 2021).

Usually IC50 stands for the concentration needed to halve the response being measured. With `O=C(N[C@H]1CCC[C@@H]1O)c1cc(-c2ccc(Cl)cc2)nn(-c2cccc(F)c2)c1=O` (single isomer, unassigned) [Example 125, 6-(4-Chlorophenyl)-2-(3-fluorophenyl)-N-(trans-2-hydroxycyclopentyl)-3-oxo-2,3-dihydropyridazine-4-carboxamide], the 50% inhibitory concentration (IC50) in assay [1] (setting [3]) is > 2e-05 M; in assay [2], 1.86e-07 M.

As to `O=C(NC(CO)C1CC1)c1cc(-c2ccc(C(F)(F)F)cc2)nn(-c2cccc(F)c2)c1=O` (single isomer, unassigned; (+)) [Example 352, (+)-N-(1-cyclopropyl-2-hydroxyethyl)-2-(3-fluorophenyl)-3-oxo-6-[4-(trifluoromethyl)phenyl]-2,3-dihydropyridazine-4-carboxamide], the half-inhibitory concentration (IC50) in assay [1] (setting [3]) is > 2e-05 M; in assay [2] it was 1e-07 M.

In the case of `CC(C)(O)C(NC(=O)c1cc(-c2ccc(Cl)cc2)nn(-c2cccc(F)c2)c1=O)C(F)(F)F` (single isomer, unassigned) [Example 278, 6-(4-Chlorophenyl)-2-(3-fluorophenyl)-3-oxo-N-(1,1,1-trifluoro-3-hydroxy-3-methylbutan-2-yl)-2,3-dihydropyridazine-4-carboxamide], the half-maximal inhibitory concentration (IC50) in assay [1] (setting [4]) was > 2e-05 M; in assay [2], 2.05e-07 M.

In the case of `O=C(NC(CCO)C(F)(F)F)c1cc(-c2ccc(Cl)cc2)nn(-c2cccc(F)c2)c1=O` (single isomer, unassigned; (-)) [Example 342, (−)-6-(4-chlorophenyl)-2-(3-fluorophenyl)-3-oxo-N-(1,1,1-trifluoro-4-hydroxybutan-2-yl)-2,3-dihydropyridazine-4-carboxamide], the IC50 is > 2e-05 M in assay [1] (setting [4]) and 4.46e-07 M in assay [2].

With `O=C(N[C@@H]1CCCC(F)(F)[C@H]1O)c1cc(-c2ccc(Cl)cc2)nn(-c2cccc(F)c2)c1=O` (relative stereo) [Example 274, 6-(4-Chlorophenyl)-N-[(trans)-3,3-difluoro-2-hydroxycyclohexyl]-2-(3-fluorophenyl)-3-oxo-2,3-dihydropyridazine-4-carboxamide], the IC50 in assay [1] (setting [4]) was > 2e-05 M; in assay [2], 2.06e-08 M.

In the case of `CC(O)C(NC(=O)c1cc(-c2ccc(C(F)(F)F)cc2)nn(-c2cccc(F)c2)c1=O)C(F)(F)F` (single isomer, unassigned) [Example 349, 2-(3-fluorophenyl)-3-oxo-N-(1,1,1-trifluoro-3-hydroxybutan-2-yl)-6-[4-(trifluoromethyl)phenyl]-2,3-dihydropyridazine-4-carboxamide], the values for the IC50 in assay [1] (setting [4]) and in assay [2] were > 2e-05 M and 3.54e-09 M, respectively.

On to `CC[C@@H](CO)NC(=O)c1cc(-c2ccc(OC(F)F)cc2)nn(-c2cccc(F)c2)c1=O` [Example 137, 6-[4-(Difluoromethoxy)phenyl]-2-(3-fluorophenyl)-N-[(2S)-1-hydroxybutan-2-yl]-3-oxo-2,3-dihydropyridazine-4-carboxamide], for which the half-inhibitory concentration (IC50) in assay [1] (setting [4]) was > 2e-05 M; in assay [2], 4.99e-08 M.

Turning to `O=C(NCC(O)C1CC1)c1cc(-c2ccc(Cl)cc2)nn(-c2cccc(F)c2)c1=O` (single isomer, unassigned; (+)) [Example 192, (+)-6-(4-Chlorophenyl)-N-(2-cyclopropyl-2-hydroxyethyl)-2-(3-fluorophenyl)-3-oxo-2,3-dihydropyridazine-4-carboxamide], the values for the IC50 in assay [1] (setting [3]) and in assay [2] were > 2e-05 M and 1.97e-07 M, respectively.

Consider `O=C(N[C@H]1CCCC[C@@H]1O)c1cc(-c2ccc(Cl)cc2)nn(-c2cccc(F)c2)c1=O` (single isomer, unassigned) [Example 119, 6-(4-Chlorophenyl)-2-(3-fluorophenyl)-N-(trans-2-hydroxycyclohexyl)-3-oxo-2,3-dihydropyridazine-4-carboxamide], for which the half-inhibitory concentration (IC50) is > 2e-05 M in assay [1] (setting [3]) and 4.51e-07 M in assay [2].

With `O=C(NC(CO)CCO)c1cc(-c2ccc(Cl)cc2)nn(-c2cccc(F)c2)c1=O` (single isomer, unassigned; (-)) [Example 226, (−)-6-(4-Chlorophenyl)-N-(1,4-dihydroxybutan-2-yl)-2-(3-fluorophenyl)-3-oxo-2,3-dihydropyridazine-4-carboxamide], the values for the concentration for half-maximal inhibition (IC50) in assay [1] (setting [3]) and in assay [2] were > 2e-05 M and 1.42e-07 M, respectively.

On to `C[C@H](O)[C@H](C)NC(=O)c1cc(-c2ccc(Cl)c(F)c2)nn(-c2cccc(F)c2)c1=O` (relative stereo) [Example 290, rel-6-(4-Chloro-3-fluorophenyl)-2-(3-fluorophenyl)-N-[(2S,3S)-3-hydroxybutan-2-yl]-3-oxo-2,3-dihydropyridazine-4-carboxamide], for which the results for the IC50 in assay [1] (setting [4]) and in assay [2] were > 2e-05 M and 8.14e-08 M, respectively.

For `O=C(NC[C@H]1C[C@H](O)C1)c1cc(-c2ccc(Cl)cc2)nn(-c2cccc(F)c2)c1=O` [Example 372, 6-(4-chlorophenyl)-2-(3-fluorophenyl)-N-[(trans-3-hydroxycyclobutyl)-methyl]-3-oxo-2,3-dihydropyridazine-4-carboxamide], the IC50 is > 2e-05 M in assay [1] (setting [4]) and 2.21e-07 M in assay [2].

`Cc1ccc(-c2cc(C(=O)NCC(O)C(F)(F)F)c(=O)n(-c3cccc(F)c3)n2)cc1` (stereo not drawn) [Example 4, 2-(3-Fluorophenyl)-6-(4-methylphenyl)-3-oxo-N-(3,3,3-trifluoro-2-hydroxypropyl)-2,3-dihydropyridazine-4-carboxamide]: the values for the half-inhibitory concentration (IC50) in assay [1] (setting [4]) and in assay [2] were > 2e-05 M and 2.92e-08 M, respectively.

For the compound `CC(O)C(NC(=O)c1cc(-c2ccc(C(F)(F)F)cc2)nn(-c2cccc(F)c2)c1=O)C(F)(F)F` (single isomer, unassigned) [Example 350, 2-(3-fluorophenyl)-3-oxo-N-(1,1,1-trifluoro-3-hydroxybutan-2-yl)-6-[4-(trifluoromethyl)phenyl]-2,3-dihydropyridazine-4-carboxamide], the half-inhibitory concentration (IC50) is > 2e-05 M in assay [1] (setting [3]) and 2.08e-07 M in assay [2].

As for `O=C(NC(CO)C1CC1)c1cc(-c2ccc(Cl)cc2)nn(-c2cccc(F)c2)c1=O` (single isomer, unassigned; (-)) [Example 194, (−)-6-(4-Chlorophenyl)-N-(1-cyclopropyl-2-hydroxyethyl)-2-(3-fluorophenyl)-3-oxo-2,3-dihydropyridazine-4-carboxamide], the results for the half-inhibitory concentration (IC50) in assay [1] (setting [4]) and in assay [2] were > 2e-05 M and 1.21e-08 M, respectively.

For the compound `CC(C)[C@@H](CO)NC(=O)c1cc(-c2ccc(Cl)c(F)c2)nn(-c2cc(F)cc(F)c2)c1=O` [Example 401, 6-(4-chloro-3-fluorophenyl)-2-(3,5-difluorophenyl)-N-[(2S)-1-hydroxy-3-methylbutan-2-yl]-3-oxo-2,3-dihydropyridazine-4-carboxamide], the 50% inhibitory concentration (IC50) in assay [1] (setting [4]) was > 2e-05 M; in assay [2], 1e-07 M.

Regarding `CC(C)[C@@H](CO)NC(=O)c1cc(-c2ccc(Cl)c(F)c2)nn(-c2cccc(F)c2)c1=O` [Example 285, 6-(4-Chloro-3-fluorophenyl)-2-(3-fluorophenyl)-N-[(2S)-1-hydroxy-3-methylbutan-2-yl]-3-oxo-2,3-dihydropyridazine-4-carboxamide], the IC50 in assay [1] (setting [4]) was > 2e-05 M; in assay [2] it was 9.39e-08 M.

`O=C(NC(CO)C1CCOC1)c1cc(-c2ccc(Cl)cc2)nn(-c2cccc(F)c2)c1=O` (single isomer, unassigned) [Example 40, 6-(4-Chlorophenyl)-2-(3-fluorophenyl)-N-[2-hydroxy-1-(tetrahydrofuran-3-yl)ethyl]-3-oxo-2,3-dihydropyridazine-4-carboxamide]: the IC50 in assay [1] (setting [3]) was > 2e-05 M; in assay [2] it was 1.17e-07 M.
